Experimental data taken from article PMC3195894 (FEBS letters, 2011).
pIC50: −log10 of the molar value.

Tests used:
recombinant human RSK2 = recombinant human RSK2 (Homo sapiens, UniProt P51812); experiment: IMAP fluorescence polarization kinase inhibition assay, RSK2; type: biochemical; conditions: read-out: IC50 RSK2; single assay; head-to-head testing, single batch of enzyme
recombinant human Chk1 = target: T1, recombinant human Chk1 (Homo sapiens, UniProt O14757); experiment: IMAP fluorescence polarization kinase inhibition assay, Chk1; type: biochemical; conditions: read-out: IC50 Chk1; single assay; head-to-head testing, single batch of enzyme
T1 sequence (O14757 1-476): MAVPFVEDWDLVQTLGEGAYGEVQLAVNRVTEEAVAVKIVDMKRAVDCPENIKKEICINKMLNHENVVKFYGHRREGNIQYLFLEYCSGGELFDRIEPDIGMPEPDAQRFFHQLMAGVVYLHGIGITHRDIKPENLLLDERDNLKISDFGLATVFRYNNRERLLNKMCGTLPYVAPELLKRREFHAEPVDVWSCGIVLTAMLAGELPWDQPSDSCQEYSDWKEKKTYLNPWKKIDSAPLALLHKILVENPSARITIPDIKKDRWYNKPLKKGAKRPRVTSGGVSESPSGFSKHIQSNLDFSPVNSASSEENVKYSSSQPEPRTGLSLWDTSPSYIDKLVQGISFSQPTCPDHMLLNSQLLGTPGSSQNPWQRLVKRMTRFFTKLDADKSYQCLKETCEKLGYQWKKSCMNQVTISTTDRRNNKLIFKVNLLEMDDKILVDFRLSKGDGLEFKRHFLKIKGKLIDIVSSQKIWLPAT

Chain of recombinant human RSK2 (P51812 whole entry): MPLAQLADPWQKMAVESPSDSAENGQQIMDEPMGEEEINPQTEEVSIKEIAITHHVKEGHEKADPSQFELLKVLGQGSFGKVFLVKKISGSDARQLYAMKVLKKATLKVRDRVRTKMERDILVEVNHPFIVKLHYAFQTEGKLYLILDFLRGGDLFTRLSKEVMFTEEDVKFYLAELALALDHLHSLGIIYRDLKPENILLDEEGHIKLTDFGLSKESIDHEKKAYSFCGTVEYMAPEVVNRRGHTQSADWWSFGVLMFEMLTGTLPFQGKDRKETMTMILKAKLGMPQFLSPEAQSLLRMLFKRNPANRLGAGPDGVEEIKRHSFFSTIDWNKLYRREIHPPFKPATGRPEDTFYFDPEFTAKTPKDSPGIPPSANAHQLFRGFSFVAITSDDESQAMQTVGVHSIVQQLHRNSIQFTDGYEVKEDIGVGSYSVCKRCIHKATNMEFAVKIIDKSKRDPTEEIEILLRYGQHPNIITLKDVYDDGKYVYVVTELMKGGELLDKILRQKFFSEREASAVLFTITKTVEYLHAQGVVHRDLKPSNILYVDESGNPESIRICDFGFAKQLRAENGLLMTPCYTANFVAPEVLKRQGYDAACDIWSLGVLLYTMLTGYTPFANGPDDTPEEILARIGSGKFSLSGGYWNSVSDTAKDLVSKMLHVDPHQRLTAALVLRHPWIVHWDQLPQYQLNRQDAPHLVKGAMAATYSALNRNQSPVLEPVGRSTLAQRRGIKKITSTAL

- pIC50 (recombinant human RSK2): 4.41
- pIC50 (recombinant human Chk1): 5.09
SMILES: CC(=NNC(=N)N)c1ccc(NC(=O)c2cc3cccc([N+](=O)[O-])c3[nH]2)cc1 [PV1019, 7-nitro-1H-indole-2-carboxylic acid {4-[1-(guanidinohydrazone)-ethyl]-phenyl}-amide]
